Patent publication US10927106B2, “Benzothiazole derivatives as DYRK1 inhibitors” (PHARMASUM THERAPEUTICS AS, priority 2017, dated 2021)

Tests used:
[1] = tested on: tau/MAPT phosphorylation in TS21 neurons; assay: Tau/MAPT phosphorylation in TS21 neuronal cultures, Western blotting; assay type: cell-based, human; settings: TS21 neurons
Procedure: (§1) Overexpression of DYRK1A in DS is thought to account for increased tau phosphorylation by GSK3β and the increase in DYRK1A positive neurofibrillary tangles (NFTs) in the brains of people with DS and AD. Therefore therapeutic inhibition of DYRK1A activity in DS and AD may delay the progression of neurodegeneration in DS and AD. The following experiment on reduction of tau phosphorylation by inhibition of DYRK1A by inhibitor 4-93 was performed as described in the literature (Shi, Y. et al. A human stem cell model of early Alzheimer's disease pathology in Down syndrome. Sci. Transl. Med. 4, 124ra29 (2012)).
(§2) Neuronal cultures at day 40 were treated with DYRK1A inhibitors and control compounds for 10 days. Total protein was extracted and total tau and phosphorylated tau/MAPT was quantified by Western blotting using antibodies to total tau and a number of phospho-tau epitopes.

WNK1 = WNK1 (Homo sapiens (Human), UniProt Q9H4A3); assay: Kinase profiling, 33P ATP filter binding assay; assay type: biochemical; settings: 1 micromolar inhibitor concentration, read-out: percentage inhibition
Sequence of WNK1 (Q9H4A3 whole entry, species assumed): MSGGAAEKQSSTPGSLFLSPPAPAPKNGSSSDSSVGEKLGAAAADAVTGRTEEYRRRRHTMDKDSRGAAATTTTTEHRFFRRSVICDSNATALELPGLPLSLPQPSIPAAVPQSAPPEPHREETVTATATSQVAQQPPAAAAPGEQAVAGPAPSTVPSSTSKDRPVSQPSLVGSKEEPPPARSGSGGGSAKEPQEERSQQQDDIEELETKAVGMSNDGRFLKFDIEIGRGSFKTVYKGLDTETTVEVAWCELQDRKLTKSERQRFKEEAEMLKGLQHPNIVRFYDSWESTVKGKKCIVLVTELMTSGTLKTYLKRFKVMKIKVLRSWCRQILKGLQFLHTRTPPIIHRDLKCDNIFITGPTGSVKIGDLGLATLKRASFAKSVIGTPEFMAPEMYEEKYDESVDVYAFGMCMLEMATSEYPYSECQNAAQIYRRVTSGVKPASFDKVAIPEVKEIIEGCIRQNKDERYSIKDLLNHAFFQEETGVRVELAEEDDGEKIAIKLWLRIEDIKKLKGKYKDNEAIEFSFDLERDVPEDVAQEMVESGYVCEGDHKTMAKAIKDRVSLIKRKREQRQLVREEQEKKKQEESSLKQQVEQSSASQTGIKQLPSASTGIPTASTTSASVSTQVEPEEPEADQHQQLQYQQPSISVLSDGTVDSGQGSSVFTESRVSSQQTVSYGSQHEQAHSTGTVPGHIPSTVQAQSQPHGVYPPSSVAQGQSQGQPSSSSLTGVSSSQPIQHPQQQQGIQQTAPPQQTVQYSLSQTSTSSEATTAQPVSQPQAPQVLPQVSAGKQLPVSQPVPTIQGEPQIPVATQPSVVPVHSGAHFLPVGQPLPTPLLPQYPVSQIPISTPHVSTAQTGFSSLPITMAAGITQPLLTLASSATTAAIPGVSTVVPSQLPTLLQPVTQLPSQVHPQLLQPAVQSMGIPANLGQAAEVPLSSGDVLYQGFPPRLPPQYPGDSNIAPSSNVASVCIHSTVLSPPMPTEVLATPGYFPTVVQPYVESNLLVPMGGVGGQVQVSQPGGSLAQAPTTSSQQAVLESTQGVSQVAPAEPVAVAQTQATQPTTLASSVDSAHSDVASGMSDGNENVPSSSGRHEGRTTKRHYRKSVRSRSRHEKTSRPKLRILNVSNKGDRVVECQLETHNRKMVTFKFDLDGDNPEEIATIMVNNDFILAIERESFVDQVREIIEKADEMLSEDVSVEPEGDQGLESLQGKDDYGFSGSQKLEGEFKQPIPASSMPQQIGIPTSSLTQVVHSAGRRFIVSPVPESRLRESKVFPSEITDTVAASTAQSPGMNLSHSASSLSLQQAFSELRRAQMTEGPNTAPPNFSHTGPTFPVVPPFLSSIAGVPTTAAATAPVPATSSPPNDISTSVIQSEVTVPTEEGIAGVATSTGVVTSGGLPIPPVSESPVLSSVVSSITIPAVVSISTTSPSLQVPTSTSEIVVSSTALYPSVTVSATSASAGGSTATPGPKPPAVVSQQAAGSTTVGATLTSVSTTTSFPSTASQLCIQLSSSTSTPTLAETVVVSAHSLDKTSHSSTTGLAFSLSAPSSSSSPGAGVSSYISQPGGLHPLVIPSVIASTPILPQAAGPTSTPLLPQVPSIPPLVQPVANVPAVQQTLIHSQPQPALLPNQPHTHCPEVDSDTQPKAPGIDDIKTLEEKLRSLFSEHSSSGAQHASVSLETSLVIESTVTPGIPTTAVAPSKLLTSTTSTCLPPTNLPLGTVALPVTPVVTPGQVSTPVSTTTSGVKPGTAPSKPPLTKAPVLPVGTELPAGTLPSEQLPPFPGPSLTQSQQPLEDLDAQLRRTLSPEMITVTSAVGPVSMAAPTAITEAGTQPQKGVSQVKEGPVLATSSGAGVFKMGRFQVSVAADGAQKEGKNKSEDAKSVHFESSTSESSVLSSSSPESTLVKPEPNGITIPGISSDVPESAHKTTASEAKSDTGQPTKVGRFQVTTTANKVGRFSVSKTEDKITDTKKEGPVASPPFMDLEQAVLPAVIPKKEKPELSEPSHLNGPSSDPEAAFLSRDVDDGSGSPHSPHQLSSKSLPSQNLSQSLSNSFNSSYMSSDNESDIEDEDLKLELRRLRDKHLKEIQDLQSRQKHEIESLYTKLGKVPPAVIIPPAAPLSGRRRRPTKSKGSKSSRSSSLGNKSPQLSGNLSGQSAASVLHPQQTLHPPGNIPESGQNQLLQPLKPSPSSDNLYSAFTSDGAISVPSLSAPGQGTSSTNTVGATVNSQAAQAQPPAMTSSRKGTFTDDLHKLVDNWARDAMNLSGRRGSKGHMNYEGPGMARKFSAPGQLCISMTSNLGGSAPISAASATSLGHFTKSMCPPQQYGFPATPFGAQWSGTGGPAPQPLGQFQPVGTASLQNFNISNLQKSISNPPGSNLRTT

DDR2 = DDR2 (Homo sapiens (Human), UniProt Q16832); assay: Kinase profiling, 33P ATP filter binding assay; assay type: biochemical; settings: 1 micromolar inhibitor concentration, read-out: percentage inhibition
ERK1 = ERK1 (Homo sapiens (Human), UniProt P27361); assay: Kinase profiling, 33P ATP filter binding assay; assay type: biochemical; settings: 1 micromolar inhibitor concentration, read-out: percentage inhibition
Sequence of ERK1 (P27361 whole entry, species assumed): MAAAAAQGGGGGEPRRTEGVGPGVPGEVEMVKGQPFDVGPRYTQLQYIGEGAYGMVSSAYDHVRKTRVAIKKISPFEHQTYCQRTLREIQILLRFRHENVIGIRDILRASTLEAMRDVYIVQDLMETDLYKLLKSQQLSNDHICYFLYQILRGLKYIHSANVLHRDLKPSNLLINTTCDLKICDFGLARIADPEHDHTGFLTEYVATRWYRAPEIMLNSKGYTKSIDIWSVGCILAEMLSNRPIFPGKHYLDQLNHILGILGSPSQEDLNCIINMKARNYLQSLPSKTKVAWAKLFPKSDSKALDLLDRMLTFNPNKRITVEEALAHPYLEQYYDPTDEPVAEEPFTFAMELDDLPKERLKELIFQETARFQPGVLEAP

ABL = ABL (Homo sapiens (Human), UniProt P00519); assay: Kinase profiling, 33P ATP filter binding assay; assay type: biochemical; settings: 1 micromolar inhibitor concentration, read-out: percentage inhibition
Sequence of ABL (P00519 whole entry, species assumed): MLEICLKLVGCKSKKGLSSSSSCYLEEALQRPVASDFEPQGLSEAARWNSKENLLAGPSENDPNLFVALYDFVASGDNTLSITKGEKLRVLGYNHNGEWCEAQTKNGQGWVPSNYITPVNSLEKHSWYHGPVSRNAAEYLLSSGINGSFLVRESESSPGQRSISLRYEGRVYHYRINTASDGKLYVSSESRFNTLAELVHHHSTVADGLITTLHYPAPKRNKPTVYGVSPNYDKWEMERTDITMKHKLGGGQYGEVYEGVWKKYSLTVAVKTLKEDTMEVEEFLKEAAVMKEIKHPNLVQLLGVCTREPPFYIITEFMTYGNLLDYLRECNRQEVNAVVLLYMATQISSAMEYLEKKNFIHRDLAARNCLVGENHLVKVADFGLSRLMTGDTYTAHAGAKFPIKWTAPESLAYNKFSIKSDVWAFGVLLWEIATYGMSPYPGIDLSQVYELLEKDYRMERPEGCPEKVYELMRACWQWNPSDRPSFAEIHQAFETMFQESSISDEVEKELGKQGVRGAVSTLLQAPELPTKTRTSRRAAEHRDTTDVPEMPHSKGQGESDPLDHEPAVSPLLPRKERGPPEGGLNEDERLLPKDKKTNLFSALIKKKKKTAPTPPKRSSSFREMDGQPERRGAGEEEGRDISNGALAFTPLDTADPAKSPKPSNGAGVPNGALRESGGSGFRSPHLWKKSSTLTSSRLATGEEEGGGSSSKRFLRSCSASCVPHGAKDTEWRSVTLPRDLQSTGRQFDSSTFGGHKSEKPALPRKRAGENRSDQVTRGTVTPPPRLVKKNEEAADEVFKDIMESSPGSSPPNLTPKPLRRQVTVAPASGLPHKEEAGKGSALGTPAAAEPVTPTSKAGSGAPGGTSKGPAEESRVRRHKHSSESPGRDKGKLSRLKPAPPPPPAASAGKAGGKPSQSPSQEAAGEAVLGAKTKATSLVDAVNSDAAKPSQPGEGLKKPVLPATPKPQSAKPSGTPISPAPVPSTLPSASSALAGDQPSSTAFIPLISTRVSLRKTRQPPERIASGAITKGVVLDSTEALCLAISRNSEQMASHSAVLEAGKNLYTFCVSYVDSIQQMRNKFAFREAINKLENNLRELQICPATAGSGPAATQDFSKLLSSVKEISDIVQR

[2] = tested on: tau/MAPT phosphorylation in control neurons; assay: Tau/MAPT phosphorylation in control neurons, Western blotting; assay type: cell-based, human; settings: treated for 10 days, compared to DMSO treated controls
Procedure: as §1, §2

TGFBR1 = TGFBR1 (Homo sapiens (Human), UniProt P36897); assay: Kinase profiling, 33P ATP filter binding assay; assay type: biochemical; settings: 1 micromolar inhibitor concentration, read-out: percentage inhibition
Sequence of TGFBR1 (P36897 34-503, species assumed): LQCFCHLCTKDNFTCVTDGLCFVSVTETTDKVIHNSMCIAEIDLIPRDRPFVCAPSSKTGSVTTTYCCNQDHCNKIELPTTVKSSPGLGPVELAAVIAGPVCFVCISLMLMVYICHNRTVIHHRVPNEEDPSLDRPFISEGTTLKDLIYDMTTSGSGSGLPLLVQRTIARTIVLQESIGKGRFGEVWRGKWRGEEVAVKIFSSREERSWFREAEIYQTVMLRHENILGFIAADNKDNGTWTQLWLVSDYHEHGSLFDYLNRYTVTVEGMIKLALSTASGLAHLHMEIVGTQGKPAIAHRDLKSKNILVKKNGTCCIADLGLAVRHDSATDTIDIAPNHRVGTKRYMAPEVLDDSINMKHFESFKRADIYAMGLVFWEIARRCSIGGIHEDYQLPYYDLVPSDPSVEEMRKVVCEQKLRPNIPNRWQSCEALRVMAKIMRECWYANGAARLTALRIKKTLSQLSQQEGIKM

PINK = settings: 1 micromolar inhibitor concentration
Procedure: (§3) The determination of protein kinase inhibition was performed at the International Centre for Kinase Profiling at the University of Dundee, UK. […] The ATP concentrations were at or below the calculated Km for ATP for each particular kinase.

AMPK (hum) = settings: 1 micromolar inhibitor concentration
Excerpt: The ATP concentrations were at or below the calculated Km for ATP for each particular kinase.

CLK2 = CLK2 (Homo sapiens (Human), UniProt P49760); assay: Kinase profiling, 33P ATP filter binding assay; assay type: biochemical; settings: 1 micromolar inhibitor concentration, read-out: percentage inhibition
PHK = settings: 1 micromolar inhibitor concentration
Procedure: as §3

GSK3b = GSK3b (Homo sapiens (Human), UniProt P49841); assay: Kinase profiling, 33P ATP filter binding assay; assay type: biochemical; settings: 1 micromolar inhibitor concentration, read-out: percentage inhibition
Sequence of GSK3b (P49841 whole entry, species assumed): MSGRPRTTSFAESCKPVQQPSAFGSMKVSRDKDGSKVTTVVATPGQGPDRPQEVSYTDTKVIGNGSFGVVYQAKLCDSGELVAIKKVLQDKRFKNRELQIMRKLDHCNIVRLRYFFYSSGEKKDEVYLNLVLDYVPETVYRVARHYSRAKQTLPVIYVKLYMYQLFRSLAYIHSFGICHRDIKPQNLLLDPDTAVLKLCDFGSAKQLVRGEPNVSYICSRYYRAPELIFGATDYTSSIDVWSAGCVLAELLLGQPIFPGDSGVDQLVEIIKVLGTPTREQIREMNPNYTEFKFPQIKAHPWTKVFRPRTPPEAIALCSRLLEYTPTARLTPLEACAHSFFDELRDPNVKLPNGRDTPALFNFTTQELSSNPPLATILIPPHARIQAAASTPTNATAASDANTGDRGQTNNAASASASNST

ROCK 2 = settings: 1 micromolar inhibitor concentration
Procedure: as §3

[3] = ten days treatment, vs DMSO treated controls or DAPT treated positive controls
[4] = treated for 10 days, normalised to β-actin, vs DMSO treated controls

COc1ccc2sc(-c3cncc(NC(C)=O)c3)nc2c1 [4-93, N-(5-(5-Methoxybenzo[d]thiazol-2-yl)pyridin-3-yl)acetamide]
phosphorylation of Ser 214 normalised to total tau levels ([1]; ten days treatment): unaffected
phosphorylated tau/MAPT at Ser 396 normalised to total tau levels [1, 3]: significantly lower
phosphorylated tau/MAPT at Ser 404 normalised to total tau levels [1, 3]: significantly lower
tau phosphorylation at Ser 396 [1, 4]: significantly reduced
tau phosphorylation at Ser 404 [1, 4]: significantly reduced
phosphorylation at Ser 214 ([1]; treated for 10 days, site not phosphorylated by DYRK1A): do not affect
inhibition at 1 µM (WNK1): 0%
inhibition at 1 µM (DDR2): 2%
inhibition at 1 µM (ERK1): 0%
inhibition at 1 µM (ABL): 3%
tau/MAPT phosphorylation at Ser 396 [2]: slight increase
tau/MAPT phosphorylation at Ser 404 [2]: slight increase
inhibition at 1 µM (TGFBR1): 0%

CS(=O)(=O)Nc1cncc(-c2nc3cc(O)ccc3s2)c1 [4-99, N-(5-(5-Hydroxybenzo[d]thiazol-2-yl)pyridin-3-yl)methanesulfonamide]
percentage inhibition (PINK): 0%
inhibition at 1 µM (WNK1): 0%
inhibition at 1 µM (DDR2): 0%
inhibition at 1 µM (ERK1): 0%
percentage inhibition (AMPK (hum)): 0%
inhibition at 1 µM (ABL): 0%
inhibition at 1 µM (CLK2): 44%
inhibition at 1 µM (TGFBR1): 0%
percentage inhibition (PHK): 0%
inhibition at 1 µM (GSK3b): 0%
percentage inhibition (ROCK 2): 0%
